Laboratory results taken from patent publication US20030036514A1, “Compositions and methods for the diagnosis and treatment of psychogenic erectile dysfunction” (priority 2001, published 2003).
Where two headings read alike, the source gives them in different places. dPhe(Cl) = D-phenylalanine carrying a chlorine on the ring; Nle = CCCC[C@H](N)C(=O)O

What was measured:
[1] = tested on: patients; details: injection, alone or combined with pheniolamine; cited from earlier work
[2] = tested on: human male; type: in vivo
Experimental: The peptides described herein were prepared by sterile methods to a final concentration of 10 mg of peptide per ml of physiological salina. In addition to a full dose providing 10 mg of the peptide to the individual, doses of 0.1 to 0.3 ml (providing 1 mg to 3 mg of the peptide to each individual) of this stock material were also injected into volunteers, with a dose of 0.1 to 0.2 ml being the most often used dosage.
A dose of 3.75 mg given to volunteers produced a long lasting erection of 4 to 6 hour duration. […] In some, this discomfort was considerable. […] Accordingly, although dosages of from about 1.0 mg to about 10.0 mg show the desired activity according to the present invention, it is preferred that the lower ranges of dosage which bring about the desired erection without undesirable side effects be used. Accordingly, it is preferred that dosages of about 1.5 mg to 2.5 mg of peptide be provided when the route of administration is subcutaneous or intramuscular. With other routes of administration, this range may require adjustment, however, it is still preferred that the lower range of adjusted effective dosages for the selected route of administration be used.
Another of the peptides according to the present invention (Ac-Nle-Asp-His-D-Phe-Cl-Arg-Trp-Lys-Gly-NH2) induced an erection within 60 minutes following administration at a concentration of 2.5 mg. This erection lasted, intermittently, for up to six hours.

[3] = tested on: castrated dog; assay: Erectile response after injection into the castrated dog; type: in vivo

COc1ccc(Cc2nccc3cc(OC)c(OC)cc23)cc1OC [papaverine]
patients in whom an erection is induced [1]: about 70%

Ac-Nle-Asp-His-D-Phe-Cl-Arg-Trp-Lys-NH2 [Example II]
erectile activity ([2]; 1.25 mg (smallest dose) subcutaneously, human volunteers): generally no erectile activity was noted
stomach discomfort ([2]; human, in vivo): stomach discomfort was noted
erectile response ([3]; castrated dog first primed with testosterone): did so
erectile response ([3]; castrated dog, not primed): caused no erectile response

Ac-Ser-Tyr-Ser-Nle-Glu-His-D-Phe-Cl-Arg-Trp-Gly-Lys-Pro-Val-NH2 [reference compound]
erectile response ([2]; highest dose administered (about 20 mg), human): did not cause an erectile response

Ac-Nle-Asp-His-D-Phe-Cl-Arg-Trp-Lys-Gly-NH2 ({Ac-Nle-Asp-H2N-dPhe(Cl)}-RWKG-NH2)
time to erection following administration ([2]; 1.25 mg, compared with 2.5 mg, human): took longer to initially occur
duration of erection (sustained intermittently) ([2]; 1.25 mg, human): up to 6 hours
time to erection following administration ([2]; 2.5 mg, human): ≤ 60 min
